Values quoted from earlier work, collected in US20030135108A1, “High throughput screening methods using magnetic resonance imaging agents” (priority 2001, published 2003).

Settings: thermodynamic stability of the Gd(III) chelate complex

stability constant (K), formation constant, logK	Structure (SMILES)
28.5	O=C([O-])CN1CCN(CC(=O)[O-])CCN(CC(=O)O)CCN(CC(=O)[O-])CC1.[Gd+3] [Gd-DOTA]
22.4	O=C([O-])CN(CCN(CC(=O)[O-])CC(=O)[O-])CCN(CC(=O)[O-])CC(=O)[O-].[Gd+3] [Gd(DTPA)^2−]
